Where a name gives a salt, the structure may show the parent alone.
Assays:
[1] = system: Harmaline-Induced Essential Tremor in Rats; assay: Harmaline-induced essential tremor in rats (observational score, Tremor Monitor waveforms); type: in vivo, rats (male; Sprague Dawley); details: for tremor, as indexed by OS, TI, and MPP: overall conclusion, propranolol 20 mg/kg
Protocol: Subjects: Naïve rats (114; male; Sprague Dawley; aged 6-9 weeks; weight 190-369 g) were obtained from Charles River UK and acclimated to the testing room in home cages (standard caging; housed in groups of 4) up to 7 days following arrival at the test facility, with free access to food (Certified Rodent CR 14% Protein Rodent Diet, LabDiet® 5CR4) and water on a 12 h/12 h light/dark cycle from arrival (lights on at 7:00 AM). All subjects were weighed at the beginning of the study and assigned to treatment groups.
Tremor Monitor™ (“TM”): A TM from San Diego Instruments was obtained to measure movement waveforms (i.e., amplitude (“A”) (dBV) as a function of frequency (“f”) (Hz)) (threshold 10 dBV).
NBX/Harmaline Experimental Group (number of subjects (“n”)=36 (12 at each dose of NBX)): Subjects were habituated to the TM for 2×5 minutes (with a 20 minute gap between the two 5 minute periods). The next day, 5.2, 10.4, or 20.8 mg/kg (total THC and CBD) NBX was administered p.o. (oral gavage) in sesame oil to the subjects at 2 mL/kg. 100 minutes after the NBX was administered, 10 mg/kg of harmaline was administered i.p. in water to the subjects at 5 mL/kg. 20, 40, and 60 minutes after the harmaline was administered to the subjects, the subjects were observationally scored in their home cages on a scale from 0 to 4 (wherein scores (“observational scores” (“OS”)) of 0, 1, 2, 3, and 4 correspond, as summarized in TABLE A below, to “No tremor”, “Occasional tremor affecting only head and neck”, “Intermittent tremor affecting whole body”, “Persistent tremor affecting whole body and tail”, and “Severe tremor rendering subject unable to stand”, respectively) and, immediately thereafter, movement waveforms of the subjects were measured with the TM for 5 minutes each.
Thereafter, the administration of the harmaline and NBX (“acute treatment”) was continued once per day until the harmaline and NBX had been administered for 10 days (“sub-chronic treatment”). 20, 40, and 60 minutes after the final administration of the NBX and harmaline, the subjects were again observationally scored on the scale described (and summarized in TABLE A) above and movement waveforms of the subjects were again measured with the TM for 5 minutes each.
Propranolol/Harmaline Comparison Group (n=12): The Experimental Group protocol was repeated, except for administering, instead of NBX, 20 mg/kg of propranolol i.p. 30 minutes before the harmaline was administered (as the maximum effect of propranolol can be observed approximately 30 minutes after administration).
Vehicle/Harmaline Control Group (n=12): The Experimental Group protocol was repeated, except for administering, instead of NBX, sesame oil (vehicle) at 2 mL/kg.
Calculations and Statistical Analysis: For each movement waveform measured, the following values were calculated: average amplitude (“A”) (average power) for the range of frequency (“f”) from
Tremor Index (“TI”=AP2−AP1); and Motion Power Percentage (“MPP” (%)=AP2/(AP1+AP2)×100). Further, for each subject, the following values were calculated: total number of tremor events (10 dBV threshold; sum of 20-, 40-, and 60-minute data); total average length of one tremor event (average of 20-, 40-, and 60-minute data); and total cumulative time of tremor events (sum of 20-, 40-, and 60-minute data), wherein “total” refers to combination of the 20-minute data, the 40-minute data, and the 60-minute data (e.g., “total cumulative time of tremor events” means total of the cumulative time of tremor events for the 20-minute data, the cumulative time of tremor events for the 40-minute data, and the cumulative time of tremor events for the 60-minute data). For the 20-, 40-, and 60-minute data independently, OS, MPP, and TI were analyzed by Kruskal-Wallis followed by Dunn's multiple comparison test. […]

[2] = system: rats; assay: Propranolol/Vehicle and NBX/Vehicle control groups (saline instead of harmaline), tremor measures; type: in vivo, rats (male; Sprague Dawley); details: vs Vehicle/Vehicle group; for Tremor Index (TI) / observational score (OS): propranolol 20 mg/kg i.p. or NBX 5.2, 10.4, 20.8 mg/kg p.o.; for Motion Power Percentage (MPP): except for NBX at 20.8 mg/kg total THC and CBD at the 20 minute timepoint
Protocol: Propranolol/Vehicle Control Group (n=12): The Propranolol/Harmaline Comparison Group protocol was repeated, except for administering, instead of harmaline, saline (vehicle) at 5 mL/kg.
Vehicle/Vehicle Control Group (n=6): The Experimental Group protocol was repeated, except for administering, instead of NBX, sesame oil (vehicle) at 2 mL/kg, and, instead of harmaline, saline (vehicle) at 5 mL/kg.
NBX/Vehicle Control Group (n=36 (12 at each dose)): The Experimental Group protocol was repeated, except for administering, instead of harmaline, saline (vehicle) at 5 mL/kg.
Tremor Index (“TI”=AP2−AP1); and Motion Power Percentage (“MPP” (%)=AP2/(AP1+AP2)×100). Further, for each subject, the following values were calculated: total number of tremor events (10 dBV threshold; sum of 20-, 40-, and 60-minute data); total average length of one tremor event (average of 20-, 40-, and 60-minute data); and total cumulative time of tremor events (sum of 20-, 40-, and 60-minute data), wherein “total” refers to combination of the 20-minute data, the 40-minute data, and the 60-minute data (e.g., “total cumulative time of tremor events” means total of the cumulative time of tremor events for the 20-minute data, the cumulative time of tremor events for the 40-minute data, and the cumulative time of tremor events for the 60-minute data). For the 20-, 40-, and 60-minute data independently, OS, MPP, and TI were analyzed by Kruskal-Wallis followed by Dunn's multiple comparison test. For the 20-, 40-, and 60-minuted data combined, the total number of tremor events, total average length (duration) of one tremor event, and total cumulative time spent in tremor were analyzed by Kruskal-Wallis followed by a Tukey's multiple comparison test. Results were considered significant for p<0.05. Outlier removal was not applied due to non-responders in the harmaline group which could not be identified in the treatment groups.

[3] = acute treatment, propranolol 20 mg/kg i.p., harmaline 10 mg/kg i.p., all timepoints (20, 40, 60 min), vs Vehicle/Harmaline group
[4] = sub-chronic treatment (10 days), propranolol 20 mg/kg i.p., harmaline 10 mg/kg i.p., all timepoints, vs Vehicle/Harmaline group
[5] = sub-chronic treatment, propranolol 20 mg/kg i.p., harmaline 10 mg/kg i.p., vs Vehicle/Harmaline group
[6] = harmaline 10 mg/kg i.p., acute treatment, all timepoints, Vehicle/Harmaline vs Vehicle/Vehicle group
[7] = harmaline 10 mg/kg i.p., acute treatment, sum of 20-, 40-, 60-minute data, Vehicle/Harmaline vs Vehicle/Vehicle group
[8] = harmaline 10 mg/kg i.p., sub-chronic treatment, all timepoints, Vehicle/Harmaline vs Vehicle/Vehicle group
[9] = harmaline 10 mg/kg i.p., sub-chronic treatment, sum of 20-, 40-, 60-minute data, Vehicle/Harmaline vs Vehicle/Vehicle group

SMILES: CC(C)NCC(O)COc1cccc2ccccc12 (stereo not drawn) [propranolol, Propranolol hydrochloride]
- observational score (OS) ([1]; acute treatment, propranolol 20 mg/kg i.p. 30 min before harmaline 10 mg/kg i.p., 20, 40 and 60 min post-dose, vs Vehicle/Harmaline group): significantly decreased
- Motion Power Percentage (MPP) [1, 3]: significantly decreased
- Tremor Index (TI) [1, 3]: significantly decreased
- total number of tremor events ([1]; acute treatment, propranolol 20 mg/kg i.p., harmaline 10 mg/kg i.p., vs Vehicle/Harmaline group, the only one of the three event measures significantly reduced): significantly reduced
- tremor, as indexed by OS, TI, and MPP ([1]; acutely): significantly reduced
- tremor, as indexed by OS, TI, and MPP ([1]; sub-chronically): significantly reduced
- Motion Power Percentage (MPP) [1, 4]: significantly decreased
- Tremor Index (TI) [1, 4]: significantly decreased
- observational score (OS) ([1]; sub-chronic treatment (once daily, 10 days), propranolol 20 mg/kg i.p., harmaline 10 mg/kg i.p., 20, 40 and 60 min, vs Vehicle/Harmaline group): significantly decreased
- total average length of one tremor event [1, 5]: significantly reduced
- total cumulative time of tremor events [1, 5]: significantly reduced
- total number of tremor events [1, 5]: significantly reduced
- Tremor Index (TI) ([2]; acute treatment): no significant effect
- observational score (OS) ([2]; acute treatment): no significant effect
- Motion Power Percentage (MPP) ([2]; acute treatment): no significant effect
- Tremor Index (TI) ([2]; sub-chronic treatment): no significant effect
- observational score (OS) ([2]; sub-chronic treatment): no significant effect
- Motion Power Percentage (MPP) ([2]; sub-chronic treatment): no significant effect

SMILES: COc1ccc2c3c([nH]c2c1)C(C)=NCC3 [harmaline, Harmaline]
- observational score (OS) ([1]; harmaline 10 mg/kg i.p., acute treatment, 20, 40 and 60 min post-dose, Vehicle/Harmaline vs Vehicle/Vehicle group): significantly increased
- Motion Power Percentage (MPP) [1, 6]: significantly increased
- Tremor Index (TI) [1, 6]: significantly increased
- total average length of one tremor event ([1]; harmaline 10 mg/kg i.p., acute treatment, average of 20-, 40-, 60-minute data, Vehicle/Harmaline vs Vehicle/Vehicle group): significantly increased
- total cumulative time of tremor events [1, 7]: significantly increased
- total number of tremor events [1, 7]: significantly increased
- observational score (OS) ([1]; harmaline 10 mg/kg i.p., sub-chronic treatment, 20, 40 and 60 min post-dose, Vehicle/Harmaline vs Vehicle/Vehicle group): significantly increased
- Motion Power Percentage (MPP) [1, 8]: significantly increased
- Tremor Index (TI) [1, 8]: significantly increased
- total average length of one tremor event ([1]; harmaline 10 mg/kg i.p., sub-chronic treatment, average of 20-, 40-, 60-minute data, Vehicle/Harmaline vs Vehicle/Vehicle group): significantly increased
- total cumulative time of tremor events [1, 9]: significantly increased
- total number of tremor events [1, 9]: significantly increased
